# In patent US7524860B2, “Antibacterial agents” (Pfizer Inc., priority 2004, dated 2009):
# Test system: Neisseria gonorrhoeae, GC525 (NG-2888)
# Experiment: in-vitro antibacterial activity, microbroth dilution MIC susceptibility testing
# Format: cell-based
# Design: unit: ug/mL
# Settings: Neisseria gonorrhoeae, microbroth dilution in gonococcal broth, 20-24 hours at 35 C, lowest concentration preventing visible growth, read-out: MIC
# Description: The in-vitro antibacterial activity of selected compounds was determined against a stain of Neisseria gonorrhoeae, GC525 (NG-2888), which is described by Rouquette-Loughlin et al, in Journal of Bacteriology, February 2003, p. 1101-1106, at p. 1103. In general, minimum inhibitory concentration (MIC) susceptibility testing followed procedures recommended by the National Committee for Clinical Laboratory Standards (NCCLS^1-2) or followed the descriptions described below:
# Neisseria gonorrhoeae strains were grown on Chocolate Agar II plates (BBL—Becton Dickinson Microbiology Systems, Cockeysville, Md.) and incubated at 35° C. in a humidified 5% CO2 incubator (Form a Scientific, Marietta Ohio). For microbroth dilution MIC testing, N. gonorrhoeae were tested in gonococcal broth (GCB):
# Gram stains were also utilized. Permanent Stock Culture Collection
# Bacterial stock cultures are stored as frozen suspensions at −70 C. N. gonorrhoeae cultures are suspended in inactivated Horse Serum (Colorado Serum Company, Denver, Colo.) containing 7.5% glucose prior to snap freezing in a dry ice/ethanol bath.
# Preparation of Standardized Test Inocula and Plate Inoculation
# Frozen stock cultures were used as the initial source of organisms for performing microbroth dilution MIC testing. Stock cultures were passed on their respective growth medium at least one growth cycle (18-24 hours) prior to their use. Bacterial culture suspensions were prepared directly from Chocolate Agar II plates into 10 mL cation-adjusted Mueller-Hinton Broth (CAMHB, BBL, # BB215069). Before use, cultures were adjusted to an optical density value of 1.6-2 on a Perkin-Elmer Lambda EZ150 Spectrophotometer (Wellesley, Mass.) set at a wavelength of 600 nm. Random cultures were plated for validation of actual colony counts. The adjusted cultures were diluted 400-fold (0.25 mL inoculum+100 mL GCB) into gonococcal broth producing a starting inoculum of approximately 5×10^5 cfu/mL. These cultures were inoculated into test plates (100 uL/well) using a Biomek® FX workstation (Beckman Coulter Inc., Fullerton, Calif.). The inoculated plates were placed in stacks of no more than 4 and covered with an empty plate. Plates were incubated for 20-24 hours at 35 C in a humidified CO2 incubator.
# Test Compound (“Drug”) Preparation
# Drug stock solutions (2 mg/mL in DMSO) were prepared on the day of testing. Drugs were weight corrected for assay content where necessary.
# Drug Dilution Tray Preparation
# Microbroth dilution stock plates were prepared in two dilution series, 64-0.06 ug drug/mL and 1-0.001 ug drug/mL. For the high concentration series, 200 uL of stock solution (2 mg/mL) was added to duplicate rows of a 96-well plate. This was used as the first well in the dilution series. Serial two-fold decremental dilutions were made using a BioMek FX robot (Beckman Coulter Inc., Fullerton, Calif.) with 10 of the remaining 11 wells, each of which contained 100 uL of the appropriate solvent/diluent. Row 12 contained solvent/diluent only and served as the control. For tube one of the low concentration series, 200 uL of a 31.25 ug/mL stock was added to duplicate rows of a 96-well plate. Serial two-fold dilutions were made as described above.
# Daughter plates were spotted (3.2 uL/well) from the stock plates listed above using the BioMek FX robot and were inoculated with organism (100 uL/well) as described previously.
# After incubation, the degree of growth in each well was read visually with the aid of a Test Reading Mirror (Dynatech Lab 220-16, Dynex Technologies, Chantilly, Va.). 96-well test plates are read in a darkened room with a single light shining from above. The MIC is the lowest concentration of drug that prevents macroscopically visible growth under the conditions of the test. […] If MIC values in duplicate tests differ by 1 well (two-fold), the […] value is reported. If duplicate tests vary by 2 dilutions (four-fold), the middle value is reported.
row,Compound,MIC
1,"CCNC(=O)Nc1nc2cc(-c3cncnc3)ccn2n1 [Example 5, 1-Ethyl-3-(7-pyrimidin-5-yl-[1,2,4]triazolo[1,5-a]pyridin-2-yl)-urea]",64 µg/mL
2,"CCNC(=O)Nc1nc2cc(-c3cccnc3)cc(C(=O)NCC)n2n1 [Example 8, 2-(3-Ethyl-ureido)-7-pyridin-3-yl-[1,2,4]triazolo[1,5-a]pyridine-5-carboxylic acid ethylamide]",1 µg/mL
3,"CCCNC(=O)c1cc(-c2cccnc2)cc2nc(NC(=O)NCC)nn12 [Example 9, 2-(3-Ethyl-ureido)-7-pyridin-3-yl-[1,2,4]triazolo[1,5-a]pyridine-5-carboxylic acid propylamide]",4 µg/mL
4,"CCNC(=O)Nc1nc2cc(-c3cccnc3)cc(C(=O)NCC3CC3)n2n1 [Example 10, 2-(3-Ethyl-ureido)-7-pyridin-3-yl-[1,2,4]triazolo[1,5-a]pyridine-5-carboxylic acid cyclopropylmethyl-amide]",8 µg/mL
5,"CCNC(=O)Nc1nc2cc(-c3cccnc3)cc(C(=O)NCc3ccccc3)n2n1 [Example 11, 2-(3-Ethyl-ureido)-7-pyridin-3-yl-[1,2,4]triazolo[1,5-a]pyridine-5-carboxylic acid benzylamide]",> 64 µg/mL
6,"CCNC(=O)Nc1nc2cc(-c3cccnc3)cc(C(=O)NC(C)C)n2n1 [Example 12, 2-(3-Ethyl-ureido)-7-pyridin-3-yl-[1,2,4]triazolo[1,5-a]pyridine-5-carboxylic acid isopropylamide]",2 µg/mL
7,"CCNC(=O)Nc1nc2cc(-c3cccnc3)cc(C(=O)NC3CC3)n2n1 [Example 13, 2-(3-Ethyl-ureido)-7-pyridin-3-yl-[1,2,4]triazolo[1,5-a]pyridine-5-carboxylic acid cyclopropylamide]",4 µg/mL
8,"CCNC(=O)Nc1nc2cc(-c3cccnc3)cc(-c3cnco3)n2n1 [Example 22, N-Ethyl-N′-[5-(1,3-oxazol-5-yl)-7-pyridin-3-yl[1,2,4]triazolo[1,5-a]pyridin-2-yl]urea]",0.5 µg/mL
9,"CCNC(=O)Nc1nc2cc(-c3cccnc3)cc(/C=N/O)n2n1 [Example 24, N-Ethyl-N′-{5-[(E)-(hydroxyimino)methyl]-7-pyridin-3-yl[1,2,4]triazolo[1,5-a]pyridin-2-yl}urea]",> 64 µg/mL
10,"CCNC(=O)Nc1nc2cc(-c3cccnc3)cc(C(C)O)n2n1 (stereo not drawn) [Example 25, N-Ethyl-N′-[5-(1-hydroxyethyl)-7-pyridin-3-yl[1,2,4]triazolo[1,5-a]pyridin-2-yl]urea]",1 µg/mL
11,"CCNC(=O)Nc1nc2cc(-c3cccnc3)cc(C(C)=O)n2n1 [Example 26, N-(5-Acetyl-7-pyridin-3-yl[1,2,4]triazolo[1,5-a]pyridin-2-yl)-N′-ethylurea]",1 µg/mL

# Same assay, conditions: microbroth dilution in gonococcal broth, 20-24 hours at 35 C, lowest concentration preventing visible growth
row,Compound,MIC
1,"1-(5-Cyclopropylaminomethyl-7-pyridin-3-yl-imidazo[1,2-a]pyridin-2-yl)-3-ethyl-urea [Example 114]",32.0 µg/mL
2,"1-Ethyl-3-(5-ethylaminomethyl-7-pyridin-3-yl-imidazo[1,2-a]pyridin-2-yl)-urea [Example 115]",32.0 µg/mL
3,"1-Ethyl-3-[7-pyridin-3-yl-5-(pyrrolidine-1-carbonyl)-imidazo[1,2-a]pyridin-2-yl]-urea [Example 120]",>64.0 µg/mL
4,"1-[7-(6-Dimethylamino-pyridin-3-yl)-[1,2,4]triazolo[1,5-a]pyridin-2-yl]-3-ethyl-urea [Example 4]",>64.0 µg/mL
5,"2-(3-Ethyl-ureido)-7-(4-methoxy-phenyl)-imidazo[1,2-a]pyridine-5-carboxylic acid ethylamide [Example 119]",64.0 µg/mL
6,"7-(2-Dimethylamino-pyrimidin-5-yl)-2-(3-isopropyl-ureido)-imidazo[1,2-a]pyridine-5-carboxylic acid ethylamide [Example 117]",>64.0 µg/mL
7,"CCNC(=O)Nc1nc2cc(-c3cccnc3)cc(C(=O)N(CC)CC)n2n1 [Example 14, 2-(3-Ethyl-ureido)-7-pyridin-3-yl-[1,2,4]triazolo[1,5-a]pyridine-5-carboxylic acid diethylamide]",16 µg/mL
